The values below come from PubChem BioAssay AID1963831 (Molecular Pharmacology Branch, DTP, NCI, 2024).

In the assay the test system is 889142-216-R-J1-PDC complex spheroid viability. The experiment in a line: Anticancer human tumor 889142-216-R-J1-PDC patient-derived bladder carcinoma cell line growth inhibition [POLQ]. The settings on record: for viability, T/C: stronger effect = lower value. Here is the method: Multicellular complex tumor spheroid response to Polymerase (POL) inhibitors (novobiocin, ART-558, RP6685) in combination with a variety of drugs and investigational agents in selected tumor cell lines
The POL inhibitors (novobiocin, ART-558, and RP6685) were evaluated both individually and in combination with standard of care and investigational anticancer small molecules within a complex spheroid model of solid tumors. . Complex spheroids include a stromal component modeled by human endothelial cells (HUVEC) and fibroblasts modeled by human mesenchymal stem cells (MSCs). The concentration ranges selected for each drug and investigational agent were based upon clinically achievable concentrations if the clinical Cmax of the agent was known.
Compounds. The drugs and investigational agents: novobiocin (NSC847541), ART-558 (NSC835418), RP-6685 (NSC848927), peposertib (NSC802822), ceralasertib (NSC780249), elimusertib (NSC800525), camonsertib (NSC841442), AZD-1390 (NSC803789), olaparib (NSC753686), talazoparib (NSC767125), rucaparib (NSC756644), sotorasib (NSC818433), MRTX-1133 (NSC836407), SN-38 (NSC673596), topotecan (NSC609699), epotoside (NSC141540), doxorubicin (NSC123127), gemcitabine (NSC613327), 5-fluorouracil (NSC19893), paclitaxel (NSC125973), vemurafenib (NSC761431), MSA-2 (NSC828583), SN-011 (NSC837082), adavosertib (NSC754352), prexasertib (NSC758257), carboplatin (NSC241240) and oxaliplatin (NSC266046), were obtained from the National Cancer Institute (NCI) Developmental Therapeutics Program Chemical Repository (21). The FDA-approved anticancer drug set is available from the Developmental Therapeutics Program at https://dtp.cancer.gov/organization/dscb/obtaining/. […] The stock solutions were prepared in dimethyl sulfoxide (DMSO, Sigma-Aldrich, St. Louis, MO, cat. D2650), except for the platinum compounds which were prepared in saline (Quality Biological, Gaithersburg, MD, cat. 114-055-101), at 800-fold the tested concentration and stored at -70 degrees C prior to their use. All drugs and investigational agents were tested over a range starting from a high concentration at or near the clinical Cmax and decreasing in half-log increments. If the clinical Cmax for an agent had not been determined, the highest concentration tested was 10 microM, except for SN-38, which was tested at a high concentration of 1 microM.
Cell Culture. All cells were maintained in an incubator at 37 degrees C and 5% CO2 with 95% humidity. The PDC lines were cultured according to standard operating procedures established by the NCI PDMR (https://pdmr.cancer.gov). Table 3 of the manuscript, lists the cell lines along with the number of the three cell types plated to form the mct-spheroids and media for tumor cell growth. After thawing, all PDC lines, except 997537-175-T-J1-PDC and 415267-285-R-J2-PDC, were cultured in Matrigel-coated flasks prepared with a working solution of 1X Ham's F-12 nutrient mix, without supplementation (Thermo Fisher Scientific, cat. 11765054), 100 U/mL penicillin-streptomycin (Thermo Fisher Scientific, cat. 15140122), and 2.5% Matrigel (Corning Inc., Corning, NY, cat. 354248) for the first three passages. The two PDC lines 997537-175-T-J1-PDC and 415267-285-R-J2-PDC were cultured on uncoated flasks. The 857933-349-R-J2-PDC line was cultured in 6C/Colon 1B media containing advanced DMEM/F-12 (Thermo Fisher Scientific, cat. 12634028), 10 mM HEPES (Thermo Fisher Scientific, cat. 15630080), 1X GlutaMAX supplement (Thermo Fisher Scientific, cat. 35050061), 0.1 mg/mL primocin (InvivoGen, San Diego, CA, cat. ant-pm-2), 10% defined fetal bovine serum, heat inactivated (HyClone Laboratories Inc., Logan, UT, cat. SH30070.03HI), 50% L-WRN conditioned media (ATCC, cat. CRL-3276), 1.25 mM N-Acetyl-L-cysteine (Sigma-Aldrich, cat. A9165), 10 mM nicotinamide (Sigma-Aldrich, cat. N0636), 1X B-27 supplement (Thermo Fisher Scientific, cat. 17504044), 1X N-2 supplement (Thermo Fisher Scientific, cat. […]

“And” between values parts separate entries of the source, which are not always exact repeats. Identical values can stand only once.
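Also: spheroids exposed to compounds for seven days.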

As to `COc1cccc2c1C(=O)c1c(O)c3c(c(O)c1C2=O)CC(O)(C(=O)CO)CC3OC1CC(N)C(O)C(C)O1` (configuration not stated) + Cc1cccc(N(C)C(=O)C2C(O)CCN2c2nc(C)cc(C(F)(F)F)c2C#N)c1, the IC50 (commonly the concentration needed to halve the response being measured) is, setting by setting: (curve of first compound, second compound 0.0316 µM) 244 nM; (curve of first compound, second compound 0.1 µM) 148 nM; (curve of first compound, second compound 0.316 µM) 150 nM; (curve of first compound, second compound 1 µM) 196 nM; (curve of first compound, second compound 3.16 µM) 183 nM; (curve of first compound, second compound 10 µM) 135 nM. The viability, T/C (commonly the result in the treated group divided by that in the control group, in per cent) was 70.9% (second compound 0.0316 µM, first compound 0.0316 µM); 69.3% (second compound 0.0316 µM, first compound 0.1 µM); 44.2% (second compound 0.0316 µM, first compound 0.316 µM); 2.17% (second compound 0.0316 µM, first compound 1 µM); 0.48% (second compound 0.0316 µM, first compound 3.16 µM); 1.56% (second compound 0.0316 µM, first compound 10 µM). Besides, the viability, T/C reads like this: (second compound 0.1 µM, first compound 0.0316 µM) 77%; (second compound 0.1 µM, first compound 0.1 µM) 56.6%; (second compound 0.1 µM, first compound 0.316 µM) 34.7%; (second compound 0.1 µM, first compound 1 µM) 2.14%; (second compound 0.1 µM, first compound 3.16 µM) 1.04%; (second compound 0.1 µM, first compound 10 µM) 1.26%. For the same molecule, the viability, T/C by setting is: (second compound 0.316 µM, first compound 0.0316 µM) 57.3%; (second compound 0.316 µM, first compound 0.1 µM) 59.7%; (second compound 0.316 µM, first compound 0.316 µM) 35.2%; (second compound 0.316 µM, first compound 1 µM) 4.5%; (second compound 0.316 µM, first compound 3.16 µM) 0.81%; (second compound 0.316 µM, first compound 10 µM) 0.94%. In addition, the viability, T/C was 58.9% (second compound 1 µM, first compound 0.0316 µM); 78% (second compound 1 µM, first compound 0.1 µM); 37% (second compound 1 µM, first compound 0.316 µM); 2.29% (second compound 1 µM, first compound 1 µM); 1.29% (second compound 1 µM, first compound 3.16 µM); 1.22% (second compound 1 µM, first compound 10 µM). Further, the viability, T/C runs as follows: (second compound 3.16 µM, first compound 0.0316 µM) 61.8%; (second compound 3.16 µM, first compound 0.1 µM) 69%; (second compound 3.16 µM, first compound 0.316 µM) 36.2%; (second compound 3.16 µM, first compound 1 µM) 1.55%; (second compound 3.16 µM, first compound 3.16 µM) 1.05%; (second compound 3.16 µM, first compound 10 µM) 0.85%. The viability, T/C reads like this: (second compound 10 µM, first compound 0.0316 µM) 55.7%; (second compound 10 µM, first compound 0.1 µM) 62.4%; (second compound 10 µM, first compound 0.316 µM) 24.7%; (second compound 10 µM, first compound 1 µM) 0.91%; (second compound 10 µM, first compound 3.16 µM) 0.87%; (second compound 10 µM, first compound 10 µM) 1.31%.
`CC(=O)O[C@H]1C(=O)[C@@]2(C)[C@H]([C@H](OC(=O)c3ccccc3)[C@]3(O)C[C@H](OC(=O)[C@H](O)[C@@H](NC(=O)c4ccccc4)c4ccccc4)C(C)=C1C3(C)C)[C@]1(OC(C)=O)CO[C@@H]1C[C@@H]2O`: the viability, T/C is, setting by setting: (compound 0.00949 µM) 51.9% and 53.3% and 40.6%; (compound 0.03 µM) 51% and 60.1% and 33.6%; (compound 0.0949 µM) 54.7% and 51.5% and 37.1%; (compound 0.3 µM) 52.4% and 50.6% and 36.6%; (compound 0.949 µM) 43.7% and 49.6% and 35.6%; (compound 3 µM) 49.5% and 56.1% and 39%.
`COC1C(OC(N)=O)C(O)C(Oc2ccc3c(O)c(NC(=O)c4ccc(O)c(CC=C(C)C)c4)c(=O)oc3c2C)OC1(C)C` (configuration not stated): the viability, T/C (compound 0.0316 µM) was 109% [middle of 12 runs] and the viability, T/C (compound 0.316 µM) is 94.6% [middle of 12 runs]. For the same molecule, the IC50 (compound alone, run of 01/08/2024) was greater than 10000 nM.
Regarding `COc1ccc([C@@H](O)c2cc(-c3ncnc4cc(N5CCOCC5)ccc34)c(F)cc2Cl)nn1`, the viability, T/C (compound 0.0316 µM) is 102% and 95.6% and 99.4%; the viability, T/C (compound 0.1 µM) is 109% and 88.8% and 107%; the viability, T/C (compound 0.316 µM) was 71.6% and 95% and 74.9%; the viability, T/C (compound 1 µM) was 57.8% and 63.2% and 70.5%; the viability, T/C (compound 3.16 µM) is 54.7% and 51.1% and 55.4%; the viability, T/C (compound 10 µM) is 38.2% and 43.1% and 35.9%. The IC50 (curve of compound) was > 10000 nM and 2580 nM and 3900 nM.
Turning to `CC1COCCN1c1cc(C2(O)CC3CCC(C2)O3)c2cnn(-c3ccn[nH]3)c2n1` (configuration not stated), the viability, T/C (compound 0.0316 µM) is 57.4% and 69.5% and 69.9%; the viability, T/C (compound 0.1 µM) was 44% and 49.5% and 54.2%; the viability, T/C (compound 0.316 µM) was 43.3% and 37.3% and 38.3%; the viability, T/C (compound 1 µM) was 32.6% and 33.5% and 34.5%; the viability, T/C (compound 3.16 µM) is 26% and 30.2% and 30.3%; the viability, T/C (compound 10 µM) is 14.7% and 11.1% and 17.2%. Also, the IC50 (curve of compound) was 75.7 nM and 135 nM and 153 nM.
As for `CCCS(=O)(=O)Nc1ccc(F)c(C(=O)c2c[nH]c3ncc(-c4ccc(Cl)cc4)cc23)c1F`, the viability, T/C is 74.9% and 85.2% and 120% (compound 0.0316 µM); 89.7% and 99.9% and 114% (compound 0.1 µM); 84.1% and 105% and 81.2% (compound 0.316 µM); 96.2% and 106% and 87.5% (compound 1 µM); 62.4% and 72.5% and 71.5% (compound 3.16 µM); 50% and 43.1% and 36.3% (compound 10 µM). The IC50 (curve of compound) was > 10000 nM and 7630 nM and 6630 nM.
For `CC1COCCN1c1cc(-c2ccnn2C)c2ccnc(-c3ccn[nH]3)c2n1` (configuration not stated), the viability, T/C was 69.8% and 79.1% and 76.9% (compound 0.0316 µM); 54.8% and 52.9% and 67.8% (compound 0.1 µM); 47% and 40.5% and 47.4% (compound 0.316 µM); 38.7% and 46.3% and 39.9% (compound 1 µM); 32.2% and 36.3% and 36.2% (compound 3.16 µM); 28.1% and 25% and 30.5% (compound 10 µM). For the same molecule, the IC50 (curve of compound) was 206 nM and 182 nM and 308 nM.
Turning to `COc1cc(C2c3cc4c(cc3C(OC3OC5COC(C)OC5C(O)C3O)C3COC(=O)C23)OCO4)cc(OC)c1O` (configuration not stated), the viability, T/C by setting is: (compound 0.0316 µM) 93.9% and 87.6% and 89.9%; (compound 0.1 µM) 82.4% and 88.4% and 76.9%; (compound 0.316 µM) 77.6% and 73% and 63.3%; (compound 1 µM) 58.1% and 80.3% and 53.2%; (compound 3.16 µM) 63.4% and 68.3% and 65.3%; (compound 10 µM) 54.3% and 62.4% and 58.1%. In addition, the half-maximal inhibitory concentration (IC50) (curve of compound) was greater than 10000 nM.
`O=C(c1cc(Cc2n[nH]c(=O)c3ccccc23)ccc1F)N1CCN(C(=O)C2CC2)CC1`: the viability, T/C was 99.2% and 94.9% and 95.6% (compound 0.0316 µM); 83.3% and 99.5% and 98.7% (compound 0.1 µM); 101% and 83.8% and 88.6% (compound 0.316 µM); 81.2% and 111% and 91.4% (compound 1 µM); 83.2% and 97.8% and 72.5% (compound 3.16 µM); 60.4% and 69.9% and 69% (compound 10 µM). For the setting “curve of compound”, the IC50 was greater than 10000 nM.
As for `CC[C@@]1(O)C(=O)OCc2c1cc1n(c2=O)Cc2cc3c(CN(C)C)c(O)ccc3nc2-1`, the viability, T/C (compound 0.000316 µM) is 110% and 87.5%; the viability, T/C (compound 0.001 µM) was 96.5% and 89.5%; the viability, T/C (compound 0.00316 µM) was 103% and 85.1%; the viability, T/C (compound 0.01 µM) is 91.3% and 89.6%; the viability, T/C (compound 0.0316 µM) is 60.9% and 63.7%; the viability, T/C (compound 0.1 µM) was 60.2% and 49.3%. Moreover, the IC50 (curve of compound) is > 100 nM and 94.7 nM.
With `Nc1ccn(C2OC(CO)C(O)C2(F)F)c(=O)n1` (configuration not stated), the viability, T/C is, setting by setting: (compound 0.0316 µM) 62.2% and 68.3% and 56.9%; (compound 0.1 µM) 47% and 40.3% and 54.1%; (compound 0.316 µM) 44.5% and 47.4% and 45%; (compound 1 µM) 44.4% and 48% and 49%; (compound 3.16 µM) 44.2% and 42.1% and 40.3%; (compound 10 µM) 37.1% and 38.8% and 31.7%. Further, the IC50 (curve of compound) was 86.1 nM and 73.7 nM and 318 nM.
